The target of this experiment is T1, KRas G12C (Homo sapiens, UniProt P01116, G12C).
T1 construct: NCI-H358 cells (ATCC CRL-5807) express KRas G12C
T1 sequence (P01116 1-188 isoform P01116-2 G12C): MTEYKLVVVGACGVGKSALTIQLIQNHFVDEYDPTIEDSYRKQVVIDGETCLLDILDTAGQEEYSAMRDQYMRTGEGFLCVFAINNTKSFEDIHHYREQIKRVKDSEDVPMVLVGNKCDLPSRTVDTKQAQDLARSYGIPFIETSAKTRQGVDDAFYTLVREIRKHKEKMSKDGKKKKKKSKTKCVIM
Briefly: Inhibition of KRas G12C-dependent cell growth: Phospho-ERK in NCI-H358 cells. The format is cell-based. As to conditions: NCI-H358 cells expressing KRas G12C; Phospho-ERK (Thr202/Tyr204) normalized to GAPDH; 3 hours compound; 4 parameter fit. The procedure, abridged: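 Phospho-ERK read-out in KRas G12C-expressing NCI-H358 cells after 3 h compound treatment (final DMSO 0.5%), by in-cell infrared immunodetection. Signal normalized to GAPDH and to DMSO controls. 4-parameter curve fit gave IC50.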
In general, IC50 refers to the concentration that gives 50% inhibition. The low end stands for greater potency in that assay, the high end for weaker potency in that assay. `C=C(F)C(=O)N1CCN(c2nc(OC[C@@H]3C[C@@H](OC)CN3C)nc3c(F)c(-c4cccc5cccc(Cl)c45)ncc23)C[C@@H]1CC#N` [Example 22, 2-[(2S)-4-[7-(8-chloro-1-naphthyl)-8-fluoro-2-[[(2S,4R)-4-methoxy-1-methyl-pyrrolidin-2-yl]methoxy]pyrido[4,3-d]pyrimidin-4-yl]-1-(2-fluoroprop-2-enoyl)piperazin-2-yl]acetonitrile] returned an IC50 of 38 nM.

Molecule `C=C(F)C(=O)N1CCN(c2nc(OCC34CCCN3C[C@H](F)C4)nc3c(F)c(-c4cccc5ccc(F)c(Cl)c45)ncc23)C[C@@H]1CC#N` (stereo partly drawn) [Example 145] returned an IC50 of 2 nM. `C=C(F)C(=O)N1CCN(c2nc(OC[C@@H]3CCCN3C)nc3c(F)c(-c4c(O)cccc4F)ncc23)C[C@@H]1CC#N` [Example 81] returned an IC50 of 1100 nM. To `CN1C[C@H](F)C[C@H]1COc1nc(N2CCN(C(=O)/C=C/CF)[C@@H](CC#N)C2)c2cnc(-c3cncc4cccc(Cl)c34)c(F)c2n1` [Example 53, 2-[(2S)-4-[7-(5-chloro-4-isoquinolyl)-8-fluoro-2-[[(2S,4R)-4-fluoro-1-methyl-pyrrolidin-2-yl]methoxy]pyrido[4,3-d]pyrimidin-4-yl]-1-[(E)-4-fluorobut-2-enoyl]piperazin-2-yl]acetonitrile] belongs 17 nM.

The molecule `C=C(F)C(=O)N1CCN(c2nc(OCCc3nccn3C)nc3c(F)c(-c4cccc5ccc(F)c(Cl)c45)ncc23)C[C@@H]1CC#N` [Example 132] came in with an IC50 of 145 nM.

The molecule `C=CC(=O)N1CCN(c2nc(C)nc3c(F)c(-c4cc(O)cc5ccccc45)ncc23)CC1` [Example 206] showed an IC50 of 1680 nM. Compared with the last molecule, the IC50 is about 12-fold higher. `C=CC(=O)N1CC2CN(c3nc(OC[C@@H]4CCCN4C)nc4c(F)c(-c5cncc6cccc(Cl)c56)ncc34)CC2C1` (stereo partly drawn) [Example 105]: the midpoint of inhibition, the IC50, lay at 10000 nM. In the case of `C#Cc1cccc2cc(O)cc(-c3ncc4c(N5CCN(C(=O)C=C)CC5)ncnc4c3F)c12` [Example 215, 1-(4-(7-(8-ethynyl-3-hydroxynaphthalen-1-yl)-8-fluoropyrido[4,3-d]pyrimidin-4-yl)piperazin-1-yl)prop-2-en-1-one] it was 31 nM; in that of `C=C(F)C(=O)N1CCN(c2nc(OC[C@@H]3C[C@@H](F)CN3C)nc3c(F)c(-c4cccc5cccc(C)c45)ncc23)C[C@@H]1CC#N` [Example 14, 2-[(2S)-4-[8-fluoro-2-[[(2S,4R)-4-fluoro-1-methyl-pyrrolidin-2-yl]methoxy]-7-(8-methyl-1-naphthyl)pyrido[4,3-d]pyrimidin-4-yl]-1-(2-fluoroprop-2-enoyl)piperazin-2-yl]acetonitrile], 119 nM. To `C=CC(=O)N1CCN(c2ncnc3cc(-c4cc(O)cc5ccccc45)ncc23)CC1C#N` (stereo not drawn) [Example 2, 1-acryloyl-4-(7-(3-hydroxynaphthalen-1-yl)pyrido[4,3-d]pyrimidin-4-yl)piperazine-2-carbonitrile] belongs 325 nM; to `C=CC(=O)N1CCC12CCN(c1ncnc3c(F)c(-c4cccc5ccc(F)c(Cl)c45)ncc13)C2` (stereo not drawn) [Example 235], 10000 nM; to `C=C(F)C(=O)N1CCN(c2nc(OCc3cc4ncccc4[nH]3)nc3c(F)c(-c4cccc5ccc(F)c(Cl)c45)ncc23)C[C@@H]1CC#N` [Example 142], 1250 nM. In the case of `C=CC(=O)N1CC[C@@H]2[C@H]1CN2c1ncnc2c(F)c(-c3cccc4ccc(F)c(CC)c34)ncc12` [Example 304, 1-((1R,5R)-6-(7-(8-ethyl-7-fluoronaphthalen-1-yl)-8-fluoropyrido[4,3-d]pyrimidin-4-yl)-2,6-diazabicyclo[3.2.0]heptan-2-yl)prop-2-en-1-one] it was 456 nM. Molecule `C=C(F)C(=O)N1CCN(c2nc(OC[C@@H]3[C@@H](F)CCN3C)nc3c(F)c(-c4cccc5ccc(F)c(Cl)c45)ncc23)C[C@@H]1CC#N` [Example 176] displayed an IC50 of 30 nM. On to `CO[C@@H]1C[C@@H](COc2nc(N3CCN(C(=O)/C=C/CF)[C@@H](CC#N)C3)c3cnc(-c4cccc5cccc(C)c45)c(F)c3n2)N(C)C1` [Example 26, 2-[(2S)-1-[(E)-4-fluorobut-2-enoyl]-4-[8-fluoro-2-[[(2S,4R)-4-methoxy-1-methyl-pyrrolidin-2-yl]methoxy]-7-(8-methyl-1-naphthyl)pyrido[4,3-d]pyrimidin-4-yl]piperazin-2-yl]acetonitrile], for which half-maximal inhibition (IC50) was put at 55 nM. To `C=C(F)C(=O)N1CCN(c2nc(OC[C@@H]3CCCN3C)nc3c(F)c(-c4cccc5cnn(C)c45)ncc23)C[C@@H]1CC#N` [Example 84] belongs 765 nM. In the case of `C=C(F)C(=O)N1CCN(c2nc(OCC3CCN3C(C)C)nc3c(F)c(-c4cccc5ccc(F)c(Cl)c45)ncc23)C[C@@H]1CC#N` (stereo partly drawn) [Example 130] it was 26 nM. To `C=CC(=O)N1CCN(c2nc(OC[C@@H]3CCCN3C)nc3c(F)c(-c4cncc5cccc(Cl)c45)ncc23)[C@@H](C)C1` [Example 96] belongs 200 nM. The molecule `C=CC(=O)N1CC[C@@H]2[C@H]1CN2c1ncnc2c(F)c(-c3cncc4cccc(Cl)c34)ncc12` [Example 251] had an IC50 of 799 nM.

As to `C=C(F)C(=O)N1CCN(c2nc(OC[C@@H]3C[C@@H](OC)CN3C)nc3c(F)c(-c4cncc5cccc(C)c45)ncc23)C[C@@H]1CC#N` [Example 34, 2-[(2S)-4-[8-fluoro-2-[[(2S,4R)-4-methoxy-1-methyl-pyrrolidin-2-yl]methoxy]-7-(5-methyl-4-isoquinolyl)pyrido[4,3-d]pyrimidin-4-yl]-1-(2-fluoroprop-2-enoyl)piperazin-2-yl]acetonitrile], half-maximal inhibition (IC50) was put at 45 nM. To `C=C(F)C(=O)N1CCN(c2nc(OC[C@@H]3CC(F)(F)CN3C)nc3c(F)c(-c4cncc5cccc(C)c45)ncc23)C[C@@H]1CC#N` [Example 45, 2-((S)-4-(2-(((S)-4,4-difluoro-1-methylpyrrolidin-2-yl)methoxy)-8-fluoro-7-(5-methylisoquinolin-4-yl)pyrido[4,3-d]pyrimidin-4-yl)-1-(2-fluoroacryloyl)piperazin-2-yl)acetonitrile] belongs 205 nM. Consider `C=CC(=O)N1CCN(c2ncnc3c(F)c(-c4cc(O)cc5ccccc45)ncc23)CC1` [Example 218, 1-(4-(8-fluoro-7-(3-hydroxynaphthalen-1-yl)pyrido[4,3-d]pyrimidin-4-yl)piperazin-1-yl)prop-2-en-1-one], for which the 50% inhibitory concentration (IC50) is 711 nM. In the case of `C=C(F)C(=O)N1CCN(c2nc(OC[C@H]3[C@@H]4CC[C@@H](C4)N3CC(F)F)nc3c(F)c(-c4cccc5ccc(F)c(Cl)c45)ncc23)C[C@@H]1CC#N` [Example 196] it was 1730 nM; in that of `C=C(F)C(=O)N1CCN(c2nc(OC[C@@H]3CCCN3C)nc3c(C)c(-c4cccc5cccc(C)c45)ncc23)C[C@@H]1CC#N` [Example 33, 2-[(2S)-1-(2-fluoroprop-2-enoyl)-4-[8-methyl-7-(8-methyl-1-naphthyl)-2-[[(2S)-1-methylpyrrolidin-2-yl]methoxy]pyrido[4,3-d]pyrimidin-4-yl]piperazin-2-yl]acetonitrile], 79 nM. In the case of `C=CC(=O)N1CC2(CCN(c3nc(OC[C@@H]4CCCN4C)nc4c(F)c(-c5c(C)ccc6[nH]ncc56)ncc34)CC2)C1` [Example 83] it was 3500 nM; in that of `COC/C=C/C(=O)N1CCN(c2ncnc3c(F)c(-c4cccc5ccc(F)c(Cl)c45)ncc23)C[C@@H]1CC#N` [Example 110], 725 nM. To `C=CC(=O)N1CCN(c2ncnc3c(F)c(-c4cc(O)cc5ccccc45)ncc23)C[C@@H]1CC#N` [Example 220, (S)-2-(1-acryloyl-4-(8-fluoro-7-(3-hydroxynaphthalen-1-yl)pyrido[4,3-d]pyrimidin-4-yl)piperazin-2-yl)acetonitrile] belongs 22 nM; to `C#Cc1cccc2cccc(-c3ncc4c(N5C[C@@H]6[C@H]5CCN6C(=O)C=C)ncnc4c3F)c12` [Example 247, 1-((1R,5R)-6-(7-(8-ethynylnaphthalen-1-yl)-8-fluoropyrido[4,3-d]pyrimidin-4-yl)-2,6-diazabicyclo[3.2.0]heptan-2-yl)prop-2-en-1-one], 105 nM; to `Cc1cccc2cncc(-c3ncc4c(N5CCN(C(=O)/C=C/CF)[C@@H](CC#N)C5)nc(OCCCN5C[C@@H]6C[C@H]5CO6)nc4c3F)c12` [Example 39, 2-[(2S)-1-[(E)-4-fluorobut-2-enoyl]-4-[8-fluoro-7-(5-methyl-4-isoquinolyl)-2-[3-[(1S,4S)-2-oxa-5-azabicyclo[2.2.1]heptan-5-yl]propoxy]pyrido[4,3-d]pyrimidin-4-yl]piperazin-2-yl]acetonitrile], 544 nM.

With `C=C(F)C(=O)N1CCN(c2nc(OC[C@@H]3CCCN3C(C)C)nc3c(F)c(-c4cccc5ccc(F)c(Cl)c45)ncc23)C[C@@H]1CC#N` [Example 121], half-maximal inhibition (IC50) was put at 63 nM.

The molecule `C=C(F)C(=O)N1CCN(c2nc(OC[C@H]3C[C@@H](F)CN3C)nc3c(F)c(-c4cccc5ccc(F)c(Cl)c45)ncc23)C[C@@H]1CC#N` [Example 167] returned an IC50 of 60 nM. In the case of `C=C(F)C(=O)N1CCN(c2nc(OCCCN3C[C@@H]4C[C@H]3CO4)nc3c(F)c(-c4cncc5cccc(C)c45)ncc23)C[C@@H]1CC#N` [Example 38, 2-[(2S)-4-[8-fluoro-7-(5-methyl-4-isoquinolyl)-2-[3-[(1S,4S)-2-oxa-5-azabicyclo[2.2.1]heptan-5-yl]propoxy]pyrido[4,3-d]pyrimidin-4-yl]-1-(2-fluoroprop-2-enoyl)piperazin-2-yl]acetonitrile] it was 338 nM; in that of `C=C(F)C(=O)N1CCN(c2nc(OC[C@@]34CCCN3C[C@H](F)C4)nc3c(F)c(-c4cccc5ccc(F)c(Cl)c45)ncc23)C[C@@H]1CC#N` [Example 229], 1 nM.
